Laboratory results reported in patent publication US7135466B2 (Kirin Beer Kabushiki Kaisha, priority 1999, dated 2006).

Biological target: T1, c-kit (Homo sapiens, UniProt P10721)
T1 construct: MO7e (human megakaryocytic leukemia cell line) which had been arrested for 20 hr; endogenous in cells; host or cells: MO7e human megakaryocytic leukemia cell line
Test: Inhibitory activity against c-kit autophosphorylation (MO7e cells, h-SCF)
Format: cell-based
Settings: MO7e cells, 50 ng/ml h-SCF; read-out: c-kit IC50
Method: Inhibitory Activity Against c-kit Autophosphorylation
MO7e (human megakaryocytic leukemia cell line) which had been arrested for 20 hr was seeded into 96 well plates at an amount of 2×10^5 per well. A solution of a test compound in DMSO was added, and a reaction was then allowed to proceed for one hr. Thereafter, the cells were stimulated by 50 ng/ml of h-SCF for 5 min, followed by replacement with lysate buffer to solubilize the cells.
Next, the solubilized cell sap was transferred to a 96-well plate with an anti-phosphotyrosine antibody (PY-20) previously immobilized thereon, and a reaction was allowed to proceed. Thereafter, the cells were reacted with an anti-c-kit antibody (c-19, Santa Cruz) as a primary antibody and were labelled with GAR (anti-rabbit IgG, horseradish peroxidase, Amersham) as a secondary antibody. Color development was then carried out in a peroxidase color development kit (Sumitomo Bakelite Co., Ltd.), and the absorbance was measured at a wavelength of 450 nm.

T1 sequence (P10721 26-976): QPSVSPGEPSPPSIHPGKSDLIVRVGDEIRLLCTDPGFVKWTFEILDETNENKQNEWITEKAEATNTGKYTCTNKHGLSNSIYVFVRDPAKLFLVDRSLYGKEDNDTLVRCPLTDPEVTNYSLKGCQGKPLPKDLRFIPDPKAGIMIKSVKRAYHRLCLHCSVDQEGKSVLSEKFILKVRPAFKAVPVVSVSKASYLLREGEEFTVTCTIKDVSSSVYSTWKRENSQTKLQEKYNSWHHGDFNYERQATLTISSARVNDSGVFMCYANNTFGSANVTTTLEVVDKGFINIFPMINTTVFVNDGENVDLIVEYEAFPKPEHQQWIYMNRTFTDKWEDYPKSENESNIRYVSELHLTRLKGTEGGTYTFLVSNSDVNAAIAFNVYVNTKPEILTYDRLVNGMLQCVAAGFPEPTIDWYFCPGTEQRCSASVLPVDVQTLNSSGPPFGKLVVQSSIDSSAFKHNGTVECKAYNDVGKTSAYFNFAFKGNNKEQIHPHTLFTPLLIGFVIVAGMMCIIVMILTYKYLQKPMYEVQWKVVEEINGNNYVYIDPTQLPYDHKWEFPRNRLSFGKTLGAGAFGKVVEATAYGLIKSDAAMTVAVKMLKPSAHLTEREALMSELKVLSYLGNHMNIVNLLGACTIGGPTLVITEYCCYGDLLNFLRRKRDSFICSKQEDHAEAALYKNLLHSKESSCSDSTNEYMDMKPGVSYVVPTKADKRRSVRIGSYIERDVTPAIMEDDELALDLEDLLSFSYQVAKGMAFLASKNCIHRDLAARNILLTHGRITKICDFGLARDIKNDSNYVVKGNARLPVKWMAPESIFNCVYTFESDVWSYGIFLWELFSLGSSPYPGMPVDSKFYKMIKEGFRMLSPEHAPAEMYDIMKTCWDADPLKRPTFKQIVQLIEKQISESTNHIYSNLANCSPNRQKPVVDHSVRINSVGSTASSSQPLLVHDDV

Row | Compound | IC50 [nM]
1 | COc1cc2nccc(Oc3ccc(OCCNc4ccccc4C)cc3)c2cc1OC [Example 783, N-(2-{4-[(6,7-Dimethoxy-4-quinolyl)oxy]phenoxy}ethyl)-N-(2-methylphenyl)amine] | 451
2 | COc1cc2nccc(Oc3ccc(OCCNc4ccc(C)cc4)cc3)c2cc1OC [Example 787, N-(2-{4-[(6,7-Dimethoxy-4-quinolyl)oxy]phenoxy}ethyl)-N-(4-methylphenyl)amine] | 37

Next, values leading:

Row | IC50 [nM] | Compound
3 | 386 | COc1ccccc1NC(=O)COc1ccc(Oc2ccnc3cc(OC)c(OC)cc23)cc1 [Example 776, N1-(2-Methoxyphenyl)-2-{4-[(6,7-dimethoxy-4-quinolyl)oxy]phenoxy}acetamide]
4 | 84 | COc1cccc(NC(=O)COc2ccc(Oc3ccnc4cc(OC)c(OC)cc34)cc2)c1 [Example 778, N1-(3-Methoxyphenyl)-2-{4-[(6,7-dimethoxy-4-quinolyl)oxy]phenoxy}acetamide]
5 | 48 | COc1ccc(NC(=O)COc2ccc(Oc3ccnc4cc(OC)c(OC)cc34)cc2)cc1 [Example 780, N1-(4-Methoxyphenyl)-2-{4-[(6,7-dimethoxy-4-quinolyl)oxy]phenoxy}acetamide]
6 | 135 | COc1ccc(NCCOc2ccc(Oc3ccnc4cc(OC)c(OC)cc34)cc2)cc1 [Example 781, N-(2-{4-[(6,7-Dimethoxy-4-quinolyl)oxy]phenoxy}ethyl)-N-(4-methoxyphenyl)amine]
7 | 365 | COc1cc2nccc(Oc3ccc(OCC(=O)Nc4ccccc4C)cc3)c2cc1OC [Example 782, N1-(2-Methylphenyl)-2-{4-[(6,7-dimethoxy-4-quinolyl)oxy]phenoxy}acetamide]
8 | 80 | COc1cc2nccc(Oc3ccc(OCC(=O)Nc4cccc(C)c4)cc3)c2cc1OC [Example 784, N1-(3-Methylphenyl)-2-{4-[(6,7-dimethoxy-4-quinolyl)oxy]phenoxy}acetamide]
9 | 71 | COc1cc2nccc(Oc3ccc(OCCNc4cccc(C)c4)cc3)c2cc1OC [Example 785, N-(2-{4-[(6,7-Dimethoxy-4-quinolyl)oxy]phenoxy}ethyl)-N-(3-methylphenyl)amine]
10 | 46 | COc1cc2nccc(Oc3ccc(OCC(=O)Nc4ccc(C)cc4)cc3)c2cc1OC [Example 786, N1-(4-Methylphenyl)-2-{4-[(6,7-dimethoxy-4-quinolyl)oxy]phenoxy}acetamide]
11 | 122 | COc1cc2nccc(Oc3ccc(OCC(=O)Nc4cccc(Cl)c4)cc3)c2cc1OC [Example 788, N1-(3-Chlorophenyl)-2-{4-[(6,7-dimethoxy-4-quinolyl)oxy]phenoxy}acetamide]
12 | 154 | COc1cc2nccc(Oc3ccc(OCC(=O)Nc4ccc(Cl)cc4)cc3)c2cc1OC [Example 789, N1-(4-Chlorophenyl)-2-{4-[(6,7-dimethoxy-4-quinolyl)oxy]phenoxy}acetamide]

Same assay, conditions: MO7e cells, h-SCF stimulation; read-out: c-kit IC50

Row | Compound | IC50 [nM]
13 | COc1cc2nccc(Oc3ccc(SCCOc4ccc(C)cc4)cc3)c2cc1OC [Example 814, 6,7-Dimethoxy-4-(4-{[2-(4-methylphenoxy)ethyl]sulfanyl}phenoxy)quinoline] | 405
14 | COc1cc2nccc(Oc3ccc(SCCOc4ccccc4C(C)C)cc3)c2cc1OC [Example 815, 4-(4-{[2-(2-Isopropylphenoxy)ethyl]sulfanyl}phenoxy)-6,7-dimethoxyquinoline] | 180
15 | COc1cc2nccc(Oc3ccc(SCCOc4ccc(C(C)C)cc4)cc3)c2cc1OC [Example 816, 4-(4-{[2-(4-Isopropylphenoxy)ethyl]sulfanyl}phenoxy)-6,7-dimethoxyquinoline] | 123
16 | COc1cc2nccc(Oc3ccc(SCCOc4ccccc4C)cc3)c2cc1OC [Example 817, 6,7-Dimethoxy-4-(4-{[2-(2-methylphenoxy)ethyl]sulfanyl}phenoxy)quinoline] | 195
17 | COc1cc2nccc(Oc3ccc(SCCOc4ccc(Cl)cc4)cc3)c2cc1OC [Example 818, 4-(4-{[2-(4-Chlorophenoxy)ethyl]sulfanyl}phenoxy)-6,7-dimethoxyquinoline] | 205
18 | COc1cc2nccc(Oc3ccc(SCCOc4ccccc4Cl)cc3)c2cc1OC [Example 819, 4-(4-{[2-(2-Chlorophenoxy)ethyl]sulfanyl}phenoxy)-6,7-dimethoxyquinoline] | 212
19 | COc1cc2nccc(Oc3ccc(SCCOc4cccc(Cl)c4)cc3)c2cc1OC [Example 820, 4-(4-{[2-(3-Chlorophenoxy)ethyl]sufanyl}phenoxy)-6,7-dimethoxyquinoline] | 187
20 | COc1cc2nccc(Oc3ccc(SCCOc4cccc(F)c4)cc3)c2cc1OC [Example 821, 4-(4-{[2-(3-Fluorophenoxy)ethyl]sulfanyl}phenoxy)-6,7-dimethoxyquinoline] | 184
21 | COc1cc2nccc(Oc3ccc(SCCOc4ccccc4F)cc3)c2cc1OC [Example 822] | 451
22 | COc1cc2nccc(Oc3ccc(SCCOc4cccc(C)c4)cc3)c2cc1OC [Example 823, 6,7-Dimethoxy-4-(4-{[2-(3-methylphenoxy)ethyl]sulfanyl}phenoxy)quinoline] | 236
23 | COc1cc2nccc(Oc3ccc(SCCOc4ccc(F)cc4)cc3)c2cc1OC [Example 824, 4-(4-{[2-(4-Fluorophenoxy)ethyl]sulfanyl}phenoxy)-6,7-dimethoxyquinoline] | 268
24 | COc1cc2nccc(Oc3ccc(SCCOc4ccc(Cl)cc4Cl)cc3)c2cc1OC [Example 825, 4-(4-{[2-(2,4-Dichlorophenoxy)ethyl]sulfanyl}phenoxy)-6,7-dimethoxyquinoline] | 333
25 | COc1cc2nccc(Oc3ccc(SCCOc4ccc(C)cc4C)cc3)c2cc1OC [Example 826, 4-(4-{[2-(2,4-Dimethylphenoxy)ethyl]sulfanyl}phenoxy)-6,7-dimethoxyquinoline] | 170
26 | COc1cc2nccc(Oc3ccc(SCCOc4ccc(C)c(C)c4)cc3)c2cc1OC [Example 827, 4-(4-{[2-(3,4-Dimethylphenoxy)ethyl]sulfanyl}phenoxy)-6,7-dimethoxyquinoline] | 175
27 | COc1cc2nccc(Oc3ccc(S(=O)(=O)CCOc4ccc(C(C)C)cc4)cc3)c2cc1OC [Example 835, 4-[(6,7-Dimethoxy-4-quinolyl)oxy]phenyl [2-(4-isopropylphenoxy)ethyl]sulfone] | 668
28 | COc1cc2nccc(Oc3ccc(SCCCOc4cccc(C)c4)cc3)c2cc1OC [Example 841, 6,7-Dimethoxy-4-(4-{[3-(3-methylphenoxy)propyl]sulfanyl}phenoxy)quinoline] | 118
29 | COc1cc2nccc(Oc3ccc(SCCCOc4ccccc4F)cc3)c2cc1OC [Example 842, 4-(4-{[3-(2-Fluorophenoxy)propyl]sulfanyl}phenoxy)-6,7-dimethoxyquinoline] | 127
30 | COc1cc2nccc(Oc3ccc(SCCCCOc4ccccc4F)cc3)c2cc1OC [Example 843, 4-(4-{[4-(2-Fluorophenoxy)butyl]sulfanyl}phenoxy)-6,7-dimethoxyquinoline] | 263
31 | COc1cc2nccc(Oc3ccc(SCCCCOc4cccc(C)c4)cc3)c2cc1OC [Example 844, 6,7-Dimethoxy-4-(4-{[4-(3-methylphenoxy)butyl]sulfanyl}phenoxy)quinoline] | 450
32 | COc1cc2ncnc(Oc3ccc(SCCCOc4ccccc4F)cc3)c2cc1OC [Example 845, 4-(4-{[3-(2-Fluorophenoxy)propyl]sulfanyl}phenoxy)-6,7-dimethoxyquinazoline] | 453

The next lines start with the values.

Row | IC50 [nM] | Compound
33 | 326 | COc1cccc(OCCSc2ccc(Oc3ccnc4cc(OC)c(OC)cc34)cc2)c1 [Example 812, 6,7-Dimethoxy-4-(4-{[2-(3-methoxyphenoxy)ethyl]sulfanyl}phenoxy)quinoline]
34 | 402 | COc1ccc(OCCSc2ccc(Oc3ccnc4cc(OC)c(OC)cc34)cc2)cc1 [Example 813, 6,7-Dimethoxy-4-(4-{[2-(4-methoxyphenoxy)ethyl]sulfanyl}phenoxy)quinoline]

Same assay, conditions: Mo7e, figure in parentheses in −( ); at 1000 nM

Row | inhibition at 1 µM [%] | Compound
35 | 26 | COc1cc2nccc(Oc3ccc(S(=O)(=O)CCOc4ccc(C)c(C)c4)cc3)c2cc1OC [Example 833, 4-[(6,7-Dimethoxy-4-quinolyl)oxy]phenyl [2-(3,4-dimethylphenoxy)ethyl]sulfone]
36 | 39 | COc1cc2nccc(Oc3ccc(S(=O)(=O)CCOc4ccccc4C(C)C)cc3)c2cc1OC [Example 836, 4-[(6,7-Dimethoxy-4-quinolyl)oxy]phenyl [2-(2-isopropylphenoxy)ethyl]sulfone]
37 | 14 | COc1cc2nccc(Oc3ccc([S+]([O-])CCOc4ccc(Cl)cc4Cl)cc3)c2cc1OC (stereo not shown) [Example 840, [2-(2,4-Dichlorophenoxy)ethyl]{4-[(6,7-dimethoxy-4-quinolyl)oxy]phenyl} sulfoxide]
38 | 33 | COc1cc2ncnc(Oc3ccc(SCCCOc4cccc(C)c4)cc3)c2cc1OC [Example 846, 6,7-Dimethoxy-4-(4-{[3-(3-methylphenoxy)propyl]sulfanyl}phenoxy)quinazoline]
39 | 9 | COc1cc2ncnc(Oc3ccc(SCCCCOc4cccc(C)c4)cc3)c2cc1OC [Example 847, 6,7-Dimethoxy-4-(4-{[4-(3-methylphenoxy)butyl]sulfanyl}phenoxy)quinazoline]

Same assay, conditions: Mo7e, figure within parentheses in −( ) or >1000( ); at 1000 nM

Row | inhibition at 1 µM [%] | Compound
40 | 35 | COc1cc2ncnc(Oc3ccc(OCC(=O)N4CCCCC4)cc3)c2cc1OC [Example 806, 2-{4-[(6,7-Dimethoxy-4-quinazolinyl)oxy]phenoxy}-1-piperidino-1-ethanone]
